# Results from patent US20100249243A1, “NOVEL BETA-HYDROXYKETONES AND BETA-ALKOXYKETONES WITH ESTROGENIC ACTIVITY” (priority 2007, published 2010).
# How the values were obtained:
# ERα = molecular target: T1, ERα (Homo sapiens, UniProt P03372); assay: ERα luciferase reporter (pERE2TATA-LUC) transactivation assay in transfected HEK293 cells; format: cell-based; design: expressed in transfected cells; host or cells: HEK293; conditions: 24 hours; for ERα receptor activation relative to 10 nM E2 corresponding 100: Table 1, sample concentration 10 μM, mean of at least three independent transfections, SEM typically <15%; for ERα in vitro activity (receptor activation relative to 10 nM E2): Table 2, previously published compounds, test compound 10 μM
# T1 sequence (P03372 1-595): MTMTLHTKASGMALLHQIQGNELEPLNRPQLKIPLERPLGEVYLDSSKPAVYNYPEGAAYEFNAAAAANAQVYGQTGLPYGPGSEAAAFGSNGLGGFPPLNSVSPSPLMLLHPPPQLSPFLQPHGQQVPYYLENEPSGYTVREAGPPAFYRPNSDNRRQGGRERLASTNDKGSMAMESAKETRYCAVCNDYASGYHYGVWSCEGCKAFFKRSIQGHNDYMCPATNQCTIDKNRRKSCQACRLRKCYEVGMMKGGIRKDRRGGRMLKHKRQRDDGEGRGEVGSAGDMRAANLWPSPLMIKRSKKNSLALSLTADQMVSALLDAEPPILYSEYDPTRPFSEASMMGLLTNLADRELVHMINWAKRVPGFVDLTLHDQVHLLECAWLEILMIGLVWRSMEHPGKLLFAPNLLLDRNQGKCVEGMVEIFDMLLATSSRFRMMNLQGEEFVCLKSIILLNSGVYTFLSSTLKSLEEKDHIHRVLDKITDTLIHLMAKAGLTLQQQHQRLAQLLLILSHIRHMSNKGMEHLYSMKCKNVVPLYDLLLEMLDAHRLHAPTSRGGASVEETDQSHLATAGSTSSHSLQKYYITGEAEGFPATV
# Experimental: (§1) All other reagents were of reagent grade from Sigma or Fluka. One day before transfection, HEK293 cells were seeded in 48-well plates (70×10^3 cells per well) in phenol-free Dulbecco's modified Eagle medium supplemented with 5% delipidated fetal bovine serum (Sigma) and antibiotics. After a medium change, the cells were transfected for 4 hours with 5 ng ERα or ERβ expression vector, 75 ng reporter plasmid pERE2TATA-LUC and 20 ng control plasmid pCMVβ by the calcium phosphate method. After transfection, the cells received fresh medium containing either vehicle (0.1% v/v) or test compound (10 μM). After 24 hours, the cells were washed, lysed and luciferase and β-galactosidase activities were determined from 20 μl of lysates with the Victor^2TM reader (PerkinElmer Wallac, Turku, Finland). […] The data are means±SEM of at least three independent transfections.
# ERβ = ERβ (Homo sapiens, UniProt Q92731); assay: ERβ luciferase reporter (pERE2TATA-LUC) transactivation assay in transfected HEK293 cells; format: cell-based; design: expressed in transfected cells; host or cells: HEK293; conditions: for ERβ receptor activation relative to 10 nM E2 corresponding 100: Table 1, sample concentration 10 μM, mean of at least three independent transfections, SEM typically <15%; for ERβ receptor activation relative to 10 nM E2 corresponding 100 / ERβ in vitro activity (receptor activation relative to 10 nM E2): 24 hours; for Emax at 10 µM: HEK293, 24 h, read-out: ERβ receptor activation relative to 10 nM E2 corresponding 100, Table 1, sample concentration 10 μM, mean of at least three independent transfections, SEM typically <15%; for ERβ in vitro activity (receptor activation relative to 10 nM E2): Table 2, previously published compounds, test compound 10 μM
# Sequence of ERβ (Q92731 whole entry): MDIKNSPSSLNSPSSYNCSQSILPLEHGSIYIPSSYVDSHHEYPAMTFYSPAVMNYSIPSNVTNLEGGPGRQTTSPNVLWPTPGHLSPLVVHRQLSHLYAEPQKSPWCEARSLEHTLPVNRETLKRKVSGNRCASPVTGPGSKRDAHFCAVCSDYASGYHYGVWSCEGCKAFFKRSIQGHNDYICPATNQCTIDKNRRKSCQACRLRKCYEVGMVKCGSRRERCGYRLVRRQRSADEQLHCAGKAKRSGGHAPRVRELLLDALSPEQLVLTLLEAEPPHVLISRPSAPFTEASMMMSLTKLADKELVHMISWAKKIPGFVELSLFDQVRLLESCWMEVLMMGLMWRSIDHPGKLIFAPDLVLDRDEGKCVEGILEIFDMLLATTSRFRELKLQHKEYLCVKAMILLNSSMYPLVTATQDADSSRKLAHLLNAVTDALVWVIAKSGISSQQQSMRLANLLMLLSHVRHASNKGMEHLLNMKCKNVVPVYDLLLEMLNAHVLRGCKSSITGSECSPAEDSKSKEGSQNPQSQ
# Experimental: as §1
smiles,measurement,setting,value
"COc1ccccc1CC(=O)CC(O)CCc1cccc(F)c1 (single isomer, unassigned) [Compound 22a, 6-(3-Fluorophenyl)-4-hydroxy-1-(2-methoxyphenyl)-2-hexanone]",ERα receptor activation relative to 10 nM E2 corresponding 100,ERα,8.4%
same,ERβ receptor activation relative to 10 nM E2 corresponding 100,ERβ,3.4%
"COc1ccccc1CC(=O)CC(O)CCc1cccc(F)c1 (single isomer, unassigned) [Compound 22b, 6-(3-Fluorophenyl)-4-hydroxy-1-(2-methoxyphenyl)-2-hexanone]",ERα receptor activation relative to 10 nM E2 corresponding 100,ERα,5.6%
same,Emax at 10 µM,ERβ,2.9%
"COc1ccc(CC(O)CC(=O)CCc2ccccc2)cc1 (single isomer, unassigned) [Compound 24a, 5-Hydroxy-6-(4-methoxyphenyl)-1-phenyl-hexan-3-one]",ERα receptor activation relative to 10 nM E2 corresponding 100,ERα,1.6%
same,ERβ receptor activation relative to 10 nM E2 corresponding 100,ERβ,−0.8%
"COc1ccc(CC(O)CC(=O)CCc2ccccc2)cc1 (single isomer, unassigned) [Compound 24b, 5-Hydroxy-6-(4-methoxyphenyl)-1-phenyl-hexan-3-one]",ERα receptor activation relative to 10 nM E2 corresponding 100,ERα,1.3%
same,ERβ receptor activation relative to 10 nM E2 corresponding 100,ERβ,1.2%
"O=C(CCc1ccccc1)CC(O)Cc1ccc2ccccc2c1 (single isomer, unassigned) [Compound 28a, 5-Hydroxy-6-naphthalen-2-yl-1-phenyl-hexan-3-one]",ERα receptor activation relative to 10 nM E2 corresponding 100,ERα,12.4%
same,ERβ receptor activation relative to 10 nM E2 corresponding 100,ERβ,6.4%
"O=C(CCc1ccccc1)CC(O)Cc1ccc2ccccc2c1 (single isomer, unassigned) [Compound 28b, 5-Hydroxy-6-naphthalen-2-yl-1-phenyl-hexan-3-one]",ERα receptor activation relative to 10 nM E2 corresponding 100,ERα,20.1%
same,ERβ receptor activation relative to 10 nM E2 corresponding 100,ERβ,20.1%
"O=C(CCCc1ccc(O)cc1)CC(O)c1cccc(O)c1 (single isomer, unassigned) [Compound 35a, 1-Hydroxy-1-(3-hydroxy-phenyl)-6-(4-hydroxy-phenyl)-hexan-3-one]",ERα receptor activation relative to 10 nM E2 corresponding 100,ERα,87.4%
same,ERβ receptor activation relative to 10 nM E2 corresponding 100,ERβ,107.8%
"O=C(CCCc1ccc(O)cc1)CC(O)c1cccc(O)c1 (single isomer, unassigned) [Compound 35b, 1-Hydroxy-1-(3-hydroxy-phenyl)-6-(4-hydroxy-phenyl)-hexan-3-one]",ERα receptor activation relative to 10 nM E2 corresponding 100,ERα,49.3%
same,ERβ receptor activation relative to 10 nM E2 corresponding 100,ERβ,43.8%
"O=C(CCCc1ccc(O)cc1)CC(O)Cc1ccc(O)cc1 (single isomer, unassigned) [Compound 42a, 2-Hydroxy-1,7-di-(4-hydroxy-phenyl)-heptan-4-one]",ERα receptor activation relative to 10 nM E2 corresponding 100,ERα,15.4%
same,ERβ receptor activation relative to 10 nM E2 corresponding 100,ERβ,1.8%
"O=C(CCCc1ccc(O)cc1)CC(O)Cc1ccc(O)cc1 (single isomer, unassigned) [Compound 42b, 2-Hydroxy-1,7-di-(4-hydroxy-phenyl)-heptan-4-one]",ERα receptor activation relative to 10 nM E2 corresponding 100,ERα,2.8%
same,ERβ receptor activation relative to 10 nM E2 corresponding 100,ERβ,−1.6%
"O=C(CC(O)CCc1ccccc1)c1ccccc1 (single isomer, unassigned) [Compound 54a, 3-Hydroxy-1,5-diphenyl-pentan-1-one]",ERα in vitro activity (receptor activation relative to 10 nM E2),ERα,3.0%
same,ERβ in vitro activity (receptor activation relative to 10 nM E2),ERβ,1.1%
"O=C(CC(O)CCc1ccccc1)c1ccccc1 (single isomer, unassigned) [Compound 54b, 3-Hydroxy-1,5-diphenyl-pentan-1-one]",ERα in vitro activity (receptor activation relative to 10 nM E2),ERα,30.2%
same,ERβ in vitro activity (receptor activation relative to 10 nM E2),ERβ,7.3%
"O=C(CCc1ccccc1)CC(O)c1ccccc1 (single isomer, unassigned) [Compound 56a, 1-Hydroxy-1,5-diphenyl-pentan-3-one]",ERα in vitro activity (receptor activation relative to 10 nM E2),ERα,78.8%
same,ERβ in vitro activity (receptor activation relative to 10 nM E2),ERβ,20.5%
"O=C(CCc1ccccc1)CC(O)c1ccccc1 (single isomer, unassigned) [Compound 56b, 1-Hydroxy-1,5-diphenyl-pentan-3-one]",ERα in vitro activity (receptor activation relative to 10 nM E2),ERα,25.3%
same,ERβ in vitro activity (receptor activation relative to 10 nM E2),ERβ,2.8%
"COc1ccc(C(=O)CC(O)Cc2ccc(OCCN(C)C)cc2)cc1 (stereo not shown) [Compound 12ab, 4-[4-(2-Dimethylamino-ethoxy)phenyl]-3-hydroxy-1-(4-methoxy-phenyl)-butan-1-one]",ERα receptor activation relative to 10 nM E2 corresponding 100,ERα,0%
same,Emax at 10 µM,ERβ,-8.7%
"O=C(CC(O)Cc1ccccc1)c1ccc(O)cc1 (stereo not shown) [Compound 18ab, 3-Hydroxy-1-(4-hydroxyphenyl)-4-phenyl-butan-1-one]",ERα receptor activation relative to 10 nM E2 corresponding 100,ERα,22.6%
same,Emax at 10 µM,ERβ,58%
"O=C(Cc1ccccc1)CC(O)c1cccc(O)c1 (stereo not shown) [Compound 19ab, 4-Hydroxy-4-(3-hydroxyphenyl)-1-phenyl-butan-2-one]",ERα receptor activation relative to 10 nM E2 corresponding 100,ERα,12.0%
same,Emax at 10 µM,ERβ,7.7%
"O=C(Cc1ccccc1)CC(O)CCc1ccccc1 (stereo not shown) [Compound 20ab, 4-Hydroxy-1,6-diphenylhexan-2-one]",ERα receptor activation relative to 10 nM E2 corresponding 100,ERα,4.3%
same,Emax at 10 µM,ERβ,0.2%
"O=C(Cc1cccc(F)c1)CC(O)CCc1ccccc1 (stereo not shown) [Compound 21ab, 1-(3-Fluorophenyl)-4-hydroxy-6-phenyl-hexan-2-one]",ERα receptor activation relative to 10 nM E2 corresponding 100,ERα,25.1%
same,Emax at 10 µM,ERβ,21.1%
"CC(O)(CC(=O)CCc1ccc(O)cc1)c1ccccc1 (stereo not shown) [Compound 23ab, 5-Hydroxy-1-(4-hydroxy-phenyl)-5-phenyl-hexan-3-one]",ERα receptor activation relative to 10 nM E2 corresponding 100,ERα,80.3%
same,Emax at 10 µM,ERβ,116%
"O=C(CCc1ccccc1)CC(O)Cc1ccc(O)cc1 (stereo not shown) [Compound 25ab, 5-Hydroxy-6-(4-hydroxy-phenyl)-1-phenyl-hexan-3-one]",ERα receptor activation relative to 10 nM E2 corresponding 100,ERα,51.4%
same,Emax at 10 µM,ERβ,6.1%
"O=C(CCc1ccccc1)CC(O)Cc1ccc(F)cc1 (stereo not shown) [Compound 26ab, 6-(4-Fluorophenyl)-5-hydroxy-1-phenyl-hexan-3-one]",ERα receptor activation relative to 10 nM E2 corresponding 100,ERα,35.0%
same,Emax at 10 µM,ERβ,3.9%
"O=C(CCc1ccccc1)CC(O)Cc1cccc2ccccc12 (stereo not shown) [Compound 27ab, 5-Hydroxy-6-naphthalen-1-yl-1-phenyl-hexan-3-one]",ERα receptor activation relative to 10 nM E2 corresponding 100,ERα,12.1%
same,Emax at 10 µM,ERβ,1.7%
"O=C(CCc1ccccc1O)CC(O)Cc1ccccc1 (stereo not shown) [Compound 30ab, 5-Hydroxy-1-(2-hydroxy-phenyl)-6-phenyl-hexan-3-one]",ERα receptor activation relative to 10 nM E2 corresponding 100,ERα,45.2%
same,Emax at 10 µM,ERβ,5.1%
"O=C(CCc1ccccc1O)CC(O)Cc1ccc(F)cc1 (stereo not shown) [Compound 32ab, 6-(4-Fluoro-phenyl)-5-hydroxy-1-(2-hydroxy-phenyl)-hexan-3-one]",ERα receptor activation relative to 10 nM E2 corresponding 100,ERα,21.6%
same,Emax at 10 µM,ERβ,11.1%
"O=C(CCc1ccc(O)cc1)CC(O)Cc1ccc(F)cc1 (stereo not shown) [Compound 33ab, 6-(4-Fluoro-phenyl)-5-hydroxy-1-(4-hydroxy-phenyl)-hexan-3-one]",ERα receptor activation relative to 10 nM E2 corresponding 100,ERα,28.6%
same,Emax at 10 µM,ERβ,21.2%
"CC(O)(CC(=O)CCCc1ccc(O)cc1)c1ccccc1 (stereo not shown) [Compound 37ab, 6-Hydroxy-1-(4-hydroxy-phenyl)-6-phenyl-heptan-4-one]",ERα receptor activation relative to 10 nM E2 corresponding 100,ERα,90.9%
same,Emax at 10 µM,ERβ,103%
"O=C(CCCc1ccccc1)CC(O)Cc1ccccc1 (stereo not shown) [Compound 38ab, 2-Hydroxy-1,7-diphenyl-heptan-4-one]",ERα receptor activation relative to 10 nM E2 corresponding 100,ERα,24.7%
same,Emax at 10 µM,ERβ,9.1%
"O=C(CCCc1ccccc1)CC(O)Cc1ccc(O)cc1 (stereo not shown) [Compound 39ab, 2-Hydroxy-1-(4-hydroxy-phenyl)-7-phenyl-heptan-4-one]",ERα receptor activation relative to 10 nM E2 corresponding 100,ERα,16.0%
same,Emax at 10 µM,ERβ,2.4%
"O=C(CCCc1ccc(O)c(O)c1)CC(O)Cc1ccccc1 (stereo not shown) [Compound 41ab, 2-Hydroxy-7-(3,4-dihydroxy-phenyl)-1-phenyl-heptan-4-one]",ERα receptor activation relative to 10 nM E2 corresponding 100,ERα,−0.5%
same,Emax at 10 µM,ERβ,-0.8%
"O=C(CCCc1ccccc1)CC(O)CCc1ccccc1 (stereo not shown) [Compound 43ab, 6-Hydroxy-1,8-diphenyl-octan-4-one]",ERα receptor activation relative to 10 nM E2 corresponding 100,ERα,2.2%
same,Emax at 10 µM,ERβ,-7.1%
"COC(CCc1ccccc1)CC(=O)Cc1ccccc1 (stereo not shown) [Compound 44ab, 4-Methoxy-1,6-diphenyl-hexan-2-one]",ERα receptor activation relative to 10 nM E2 corresponding 100,ERα,12.0%
same,Emax at 10 µM,ERβ,0.2%
